Laboratory results taken from patent US8802597B2, “Herbicidal pyrimidines” (E I du Pont de Nemours and Company, priority 2003, dated 2014).

Columns and labels:
Format in all cases: in vivo
[1] = test system: giant foxtail (Setaria faberii); experiment: Test B pre/postemergence
Procedure, shortened: (§1)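 Scores reflect visual comparison with untreated controls, where 0 means no effect and 100 complete control. Plants stayed 13 to 15 days in the greenhouse after pre- or postemergence treatment with compounds carried in a non-phytotoxic solvent and surfactant.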

[2] = test system: morningglory (Ipomoea coccinea); experiment: Test B pre/postemergence
Procedure, shortened: as §1

[3] = test system: crabgrass (Digitaria sanguinalis); experiment: Test B pre/postemergence
Procedure, shortened: as §1

[4] = test system: barnyardgrass (Echinochloa crus-galli); experiment: Test B pre/postemergence
Procedure, shortened: as §1

[5] = test system: lambsquarters (Chenopodium album); experiment: Test B pre/postemergence
Procedure, shortened: as §1

[6] = test system: cocklebur (Xanthium strumarium); experiment: Test B pre/postemergence
Procedure, shortened: as §1

[7] = test system: wheat (Triticum aestivum); experiment: Test B pre/postemergence
Procedure, shortened: as §1

[8] = test system: velvetleaf (Abutilon theophrasti); experiment: Test B pre/postemergence
Procedure, shortened: as §1

[9] = test system: pigweed (Amaranthus retroflexus); experiment: Test B pre/postemergence
Procedure, shortened: as §1

corn (Zea mays) = experiment: Test B pre/postemergence
Procedure, shortened: as §1

[10] = test system: Surinam grass (Brachiaria decumbens); experiment: Test B pre/postemergence
Procedure, shortened: as §1

wild oat (Avena fatua) = experiment: Test B postemergence; conditions: for Oat, Wild plant response rating: 125 g ai/ha, scale 0 to 100 (0 no effect, 100 complete control); for Plant response rating, Oat, Wild: 500 g ai/ha, scale 0 to 100
Procedure, shortened: as §1

[11] = test system: blackgrass (Alopecurus myosuroides); experiment: Test B postemergence; conditions: for Blackgrass plant response rating: 125 g ai/ha, scale 0 to 100 (0 no effect, 100 complete control); for Plant response rating, Blackgrass: 500 g ai/ha, scale 0 to 100
Procedure, shortened: as §1

rice (Oryza sativa) = experiment: Test B flooded paddy test; conditions: Flood, 1000 g ai/ha; scale 0 to 100
Procedure, shortened: (§2)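 Visual injury scoring (0 = no effect, 100 = complete control) versus controls made 13 to 15 days after treatment in the greenhouse. Test species were grown in flooded paddy to the 2-leaf stage: rice, barnyardgrass, umbrella sedge, duck salad.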

[12] = test system: barnyardgrass (Echinochloa crus-galli); experiment: Test B flooded paddy test; conditions: Flood, 1000 g ai/ha; scale 0 (no effect) to 100 (complete control)
Procedure, shortened: as §2

[13] = test system: duck salad (Heteranthera limosa); experiment: Test B flooded paddy test; conditions: Flood, 1000 g ai/ha; scale 0 to 100
Procedure, shortened: as §2

[14] = test system: umbrella sedge (Cyperus difformis); experiment: Test B flooded paddy test; conditions: Flood, 1000 g ai/ha; scale 0 to 100
Procedure, shortened: as §2

[15] = Postemergence, 125 g ai/ha, scale 0 to 100 (0 no effect, 100 complete control)
[16] = Postemergence, 500 g ai/ha, scale 0 to 100
[17] = Preemergence, 125 g ai/ha, scale 0 to 100 (0 no effect, 100 complete control)
[18] = Preemergence, 500 g ai/ha, scale 0 to 100 (0 no effect, 100 complete control)

CCOC(=O)c1nc(-c2ccc(Cl)cc2)nc(N)c1Br [Compound 37]
Foxtail, Giant plant response rating [1, 15]: 10
Plant response rating, Foxtail, Giant [1, 16]: 60
Plant response rating, Foxtail, Giant [1, 17]: 10
Foxtail, Giant plant response rating [1, 18]: 60
Morningglory plant response rating [2, 15]: 90
Plant response rating, Morningglory [2, 16]: 100
Plant response rating, Morningglory [2, 17]: 10
Morningglory plant response rating [2, 18]: 50
Crabgrass plant response rating [3, 15]: 60
Plant response rating, Crabgrass [3, 16]: 80
Plant response rating, Crabgrass [3, 17]: 50
Crabgrass plant response rating [3, 18]: 90
Barnyardgrass plant response rating [4, 15]: 0
Plant response rating, Barnyardgrass [4, 16]: 90
Plant response rating, Barnyardgrass [4, 17]: 10
Barnyardgrass plant response rating [4, 18]: 40
Lambsquarters plant response rating [5, 15]: 100
Plant response rating, Lambsquarters [5, 16]: 100
Plant response rating, Lambsquarters [5, 17]: 100
Lambsquarters plant response rating [5, 18]: 100
Cocklebur plant response rating [6, 15]: 100
Plant response rating, Cocklebur [6, 16]: 100
Plant response rating, Cocklebur [6, 17]: 20
Cocklebur plant response rating [6, 18]: 80
Wheat plant response rating [7, 15]: 0
Plant response rating, Wheat [7, 16]: 60
Plant response rating, Wheat [7, 17]: 30
Plant response rating, Wheat [7, 18]: 60
Velvetleaf plant response rating [8, 15]: 80
Plant response rating, Velvetleaf [8, 16]: 100
Plant response rating, Velvetleaf [8, 17]: 40
Velvetleaf plant response rating [8, 18]: 80
Pigweed plant response rating [9, 15]: 100
Plant response rating, Pigweed [9, 16]: 100
Plant response rating, Pigweed [9, 17]: 100
Pigweed plant response rating [9, 18]: 100
Corn plant response rating (corn (Zea mays); [15]): 0
Plant response rating, Corn (corn (Zea mays); [16]): 70
Plant response rating, Corn (corn (Zea mays); [17]): 0
Corn plant response rating (corn (Zea mays); [18]): 10
Surinam Grass plant response rating [10, 15]: 20
Plant response rating, Surinam Grass [10, 16]: 70
Surinam Grass plant response rating [10, 18]: 40
Oat, Wild plant response rating (wild oat (Avena fatua)): 0
Plant response rating, Oat, Wild (wild oat (Avena fatua)): 0
Blackgrass plant response rating [11]: 40
Plant response rating, Blackgrass [11]: 60
Plant response rating, Rice (rice (Oryza sativa)): 0
Plant response rating, Barnyardgrass [12]: 20
Plant response rating, Ducksalad [13]: 100
Plant response rating, Sedge, Umbrella [14]: 90

CCOC(=O)c1nc(C2CC2)nc(N=CN(C)C)c1Br [Compound 40]
Foxtail, Giant plant response rating [1, 15]: 0
Plant response rating, Foxtail, Giant [1, 16]: 60
Plant response rating, Foxtail, Giant [1, 17]: 20
Foxtail, Giant plant response rating [1, 18]: 80
Morningglory plant response rating [2, 15]: 0
Plant response rating, Morningglory [2, 16]: 100
Plant response rating, Morningglory [2, 17]: 90
Morningglory plant response rating [2, 18]: 100
Crabgrass plant response rating [3, 15]: 0
Plant response rating, Crabgrass [3, 16]: 80
Plant response rating, Crabgrass [3, 17]: 60
Crabgrass plant response rating [3, 18]: 80
Barnyardgrass plant response rating [4, 15]: 0
Plant response rating, Barnyardgrass [4, 16]: 90
Plant response rating, Barnyardgrass [4, 17]: 50
Barnyardgrass plant response rating [4, 18]: 90
Lambsquarters plant response rating [5, 15]: 0
Plant response rating, Lambsquarters [5, 16]: 100
Plant response rating, Lambsquarters [5, 17]: 100
Lambsquarters plant response rating [5, 18]: 100
Cocklebur plant response rating [6, 15]: 0
Plant response rating, Cocklebur [6, 16]: 90
Plant response rating, Cocklebur [6, 17]: 90
Cocklebur plant response rating [6, 18]: 100
Wheat plant response rating [7, 15]: 50
Plant response rating, Wheat [7, 16]: 60
Plant response rating, Wheat [7, 17]: 40
Plant response rating, Wheat [7, 18]: 70
Velvetleaf plant response rating [8, 15]: 0
Plant response rating, Velvetleaf [8, 16]: 90
Plant response rating, Velvetleaf [8, 17]: 90
Velvetleaf plant response rating [8, 18]: 90
Pigweed plant response rating [9, 15]: 0
Plant response rating, Pigweed [9, 16]: 100
Plant response rating, Pigweed [9, 17]: 90
Pigweed plant response rating [9, 18]: 100
Corn plant response rating (corn (Zea mays); [15]): 0
Plant response rating, Corn (corn (Zea mays); [16]): 60
Plant response rating, Corn (corn (Zea mays); [17]): 0
Corn plant response rating (corn (Zea mays); [18]): 50
Surinam Grass plant response rating [10, 15]: 0
Plant response rating, Surinam Grass [10, 16]: 70
Plant response rating, Surinam Grass [10, 17]: 50
Surinam Grass plant response rating [10, 18]: 70
Oat, Wild plant response rating (wild oat (Avena fatua)): 40
Plant response rating, Oat, Wild (wild oat (Avena fatua)): 60
Blackgrass plant response rating [11]: 50
Plant response rating, Blackgrass [11]: 60
Plant response rating, Rice (rice (Oryza sativa)): 60
Plant response rating, Barnyardgrass [12]: 70
Plant response rating, Ducksalad [13]: 80
Plant response rating, Sedge, Umbrella [14]: 70
